In one data set the test system is ACP male antennae. As to the kind of experiment: Electroantennogram (EAG) responses of ACP male antennae to C1-C6 acids. Also noted: species or system Diaphorina citri. The protocol:
(§1) Electrophysiology. Antennas were mounted, according to a published protocol^26, under a stereoscopic microscope (SZT, BEL Engineering, MB, Italy). Antennae were connected with glass microcapillaries pulled with a PC-10 puller (Narishige, Kanto, Japan). The glass capillaries housed 0.39 mm gold wires (Sigmund Cohn Corp, Mt. Vernon, N.Y.) and were filled with a saline solution (3.7 g NaCl, 0.175 g KCl, 0.17 g CaCl2 in 500 mL of distilled water). Electrodes were connected to a Universal Probe, gain 10× (Syntech, Buchenbach, Germany) and connected to a 2-Chanel IDAC Acquisition Controller (Syntech). The signal was processed with Syntech software (GcEad version 4.6). Two Pasteur pipettes were used one for a flow balance and the other as a stimulus. The stimulus was loaded on a filter paper strip (40×4-mm), which was inserted in the stimulus pipette after evaporation for 1 min. Each cartridge was used only once. The antennal preparation was set at the end of an effluent flow tube, which had two lateral holes (13 cm from the antennal preparations) to accommodate the tips of the Pasteur pipettes (stimulus and flow balance). Humidified continuous flow (0.1 L/min) was generated by a CS-55 Stimulus Controller (Syntech). Flow for stimulus and balance were set at 1 L/min. Stimulus duration was set a 1 s. There was a minimal interval of 1 min between stimuli.

Another data set has as its system ACP female antennae. Put plainly: Electroantennogram (EAG) responses of ACP female antennae to acids. Also noted: species or system Diaphorina citri. The conditions noted are these: source dose 10^−1. As for the experimental part: as §1
Data set [1] has as its system D. citri adults. As to the kind of experiment: Field tests with baited yellow sticky traps in a citrus grove. The conditions noted are these: for Males caught: higher-dose field experiment, n=48 per trap. The format is in vivo, Diaphorina citri. As for the experimental part: Field Experiment 1: Evaluation of lignoceryl acetate, lygnocerol, formic acid, acetic acid, and propionic acid. These experiments were performed in an organic grove of Valencia sweet orange [Citrus sinensis (L.) Osbeck] grafted on ‘Rangpur’ lime (Citrus limonia Osbeck) with natural infestation of D. citri. For this purpose, yellow stick cards (30 cm in length×10 cm in width) with a 2 cm in diameter central hole were used to assess the attractivity of the test compounds to D. citri adults. Compounds were assessed at doses ranging from 0.01 μg to 100 μg. Hexane was used as a control. Tested compounds were incorporated into slow-release devices made of ES fiber (Ethylene-Propylene Side by Side, Chiso Co. Ltd, Japan). The experiments were designed in Latin square using 16 traps spaced 25 m from each other (4 traps per treatment). They were repeated three times over time and the number of captured ACP adults was recorded each 7 days for 49 days.
(§2) Statistical analyses. […] Each pair of a test and a control in indoor behavioral measurements using an Y-olfactometer or 4-way olfactometer, as well in field tests comparing only a single treatment and a control, was compared by using two-tailed, Wilcoxon matched-pairs signed rank test.

The test system of data set [2] is olfactory receptor neurons in ACP antennae. The conditions noted are these: reported in reference 28; cited from earlier work.
Data set [3] concerns 7-day-old virgin D. citri females. Particulars: acetic acid 0.01 μL/μL hexane, 100 μL. As for the experimental part: (§3) Indoor behavioral assays. All behavioral assays were conducted in a climate-controlled room (see above). A glass tube in a Y-shape (central tube 15 cm in length and 3 cm in diameter split into two tubes in a 120° angle with the same dimensions used in the central tube) was placed vertically with the decision arms pointing towards the ceiling (light sources). All connections were made with 0.635-diameter polytetrafluoroethylene (PTFE) tubes (Sigma-Aldrich, Bellefonte, Pa., USA). Clean air was provided by an oil-free air compressor (Schulz MSV6, Schulz, Joinville, SC, Brazil) and humidified into milliQ water before the line was split into two separate lines, each one with an air flowmeter with a range from 0.1 to 1.0 L/min (Brooks Instrument, Hatfield, Pa. USA) to allow balanced flow of […]. […] Insects that crossed the central tube line located 5 cm from the bifurcation within the observation time of 5 min were recorded as responders. […]
(§4) Statistical analyses. […] Field tests with multiple comparison (different doses) were analyzed by ANOVA. Capture data were first transformed into log (x+1) and them means were analyzed by Dunnett's test as well as Tukey's test (P<0.05) by comparing the mean of each column with the mean of the control or with the mean of every other group, respectively.

The subject of data set [4] is 7-day-old virgin D. citri males. Put plainly: Y-olfactometer behavioral assay, virgin males as responders. The class given is in vivo, Diaphorina citri. As for the experimental part: as §3, §4
For data set [5], the system named is 7-day-old virgin D. citri females. Particulars: acetic acid 0.01 μL/μL hexane, 100 μL. The source says: (§5) An air-flow olfactometer, also known as “4-arm olfactometer” or “4-way olfactometer” was constructed^29 (30.0×30.0×2.5 cm in length, width and height, respectively) with acrylic. A constant, charcoal-filtered humidified airflow 0.1 L/min was connected to each odor source, and all airflows converged through individual PTFE tubes to the center of the acrylic arena. Yellow fields were made by adding a yellow laser jet printed-paper below the bottom of the arena with the following color spaces: lightness (84.8±0.04), chroma (98.7±0.40), and hue angle (95.7±0.02) using a colorimeter Minolta CR400 (Konica Minolta Co., Osaka, Japan).^34 Two of the four possible arms received volatiles from acetic acid 0.01 μL/μL hexane (100 μL), whereas the other two remaining received hexane. The psyllids (virgin 7-day-old males or females) were released on the center of the arena. An olfactometer test consisted of the release of a single D. citri and the observation (from 15:00 to 18:00). As a criterion for data collection from each insect, five minutes were allowed for response (first choice). In case of response, 10 minutes were allowed to observe the time spent in each of the four odor fields.
(§6) Statistical analyses. All statistical analyses were done with Prism 7 (GrapPad, La Jolla, Calif.). Each pair of a test and a control in indoor behavioral measurements using an Y-olfactometer or 4-way olfactometer, as well in field tests comparing only a single treatment and a control, was compared by using two-tailed, Wilcoxon matched-pairs signed rank test. Field tests with multiple comparison (different doses) were analyzed by ANOVA. Capture data were first transformed into log (x+1) and them means were analyzed by Dunnett's test as well as Tukey's test (P<0.05) by comparing the mean of each column with the mean of the control or with the mean of every other group, respectively.
This is another data set of the same source.

Data set [6] relates to 7-day-old virgin D. citri males. The conditions noted are these: acetic acid 0.01 μL/μL hexane, 100 μL.
Description: as §5, §6

The nature of data set [7]: SPME analysis of volatiles from lures matured under field conditions. The format is physicochemical. The conditions noted are these: lures matured for 5 weeks under field conditions vs new lures. As for the experimental part: Injections were operated in splitless mode with an injector temperature of 250° C. The GC ovens were programmed from 40° C. for 1 min, increased to 300° C. at 10° C./min (held for 50 min). MS transfer line, manifold, and trap were set at 300° C., 50° C., and 217° C., respectively. Quantitative analyses were done on a Shimadzu GC-2010 gas chromatograph equipped with a flame ionization detector (Shimadzu Corp., Kyoto, Japan) and fitted with an HP5-MS capillary column (30 m×0.25 mm i.d.×[…]; Agilent Scientific, Santa Clara, Calif., USA). SPME analyses were done with a 50/30 divinylbenzene (DVB)/carboxen (CAR)/polydimethylsiloxane (PDMS) (Supelco, catalogue number 57328-U). Volatile compounds were collected from the headspace of the samples placed in a closed glass container with a rubber septum on the top. Both laboratories used the same oven temperature program, i.e., starting at 35° C. for 5 min, raising to 70° C. at a rate of 2.5° C./min, then increasing to 150° C. at 5° C./min, and subsequently raising to the final temperature of 250° C. at 20° C./min.

In data set [8] the test system is D. citri adults. Put plainly: Field tests with transparent traps baited with aged lignoceryl acetate lures. The class given is in vivo, Diaphorina citri. The protocol:
Field Experiment 2: Evaluation of aged lignoceryl acetate lures. Lures were prepared and kept in greenhouses for 28 days prior to being fixed in yellow stick cards in the field. Thus, aged lures were tested in the field starting on day 28 until 70 days after preparation of the lures. The area, experimental design, number of traps, and data collection were the same as described above.
Field Experiment 3: Evaluation of lignoceryl acetate lures using transparent traps. To avoid interference from the yellow visual cues from the stick cards, these experiments were performed with transparent acrylic traps (30 cm in length×10 cm in width) and covered with an adhesive glue film (Biostop Cola, Biocontrole, São Paulo, Brazil). The experimental design, number of traps, and data collection were the same as described above.
as §2

Setting [9] is: yellow sticky traps baited with 0.1 μg.
[10] abbreviates: yellow sticky traps baited with 1 μg.
The mark [11] stands for this setting: yellow sticky traps baited with 10 μg.

Structures are written as SMILES. “Also recorded” adds a separate entry of the source.

Here are results for 8 molecules from patent publication US20200315171A1, “PSYLLID PHEROMONE COMPOSITIONS” (The Regents of the University of California, priority 2017, published 2020).

Regarding `O=CO` [formic acid], the values for the EAG response in the data set on ACP male antennae (source dose 10^−1), with ACP male antennae (source dose 10^−2) and in the data set on ACP female antennae were 1.60±0.63 mV, 0.42±0.37 mV and 1.86±0.48 mV, respectively. For the same molecule, the figures for the ACP adults captured in the data set on D. citri adults [1] (setting [9]), in the data set with D. citri adults [1] (setting [10]) and in the data set with D. citri adults [1] (setting [11]) were 2.59±0.30 D. citri per trap per week, 9.17±0.36 D. citri per trap per week and 7.14±0.34 D. citri per trap per week, respectively.

With `CCC(=O)O` [propionic acid], the “Effect on responses from olfactory receptor neurons” value in data set [2] is reported as “inhibit responses”. The values for the EAG response in the data set on ACP male antennae (source dose 10^−1), with ACP male antennae (source dose 10^−2) and with ACP female antennae were 2.22±0.29 mV, 1.13±0.47 mV and 2.90±1.09 mV, respectively. Further, the ACP adults captured is on record as 9.52±0.52 D. citri per trap per week in the data set on D. citri adults [1] (yellow sticky traps baited with 0.01 μg), 18.27±0.52 D. citri per trap per week in the data set with D. citri adults [1] (setting [9]) and 13.79±0.53 D. citri per trap per week in the data set on D. citri adults [1] (setting [10]).

Turning to `CCCCCCCCCCCCCCCCCCCCCCCCO` [240H, lignocerol, reference compound], in the data set on D. citri adults [1] (doses from 0.1 to 100 μg, each week, Dunnett P=0.2770-0.9999, n=4 per dose per week), the “Captures in treatment vs control traps” value is listed as “did not find significant differences”.

With `CCCC(=O)O` [butyric acid], the EAG response in the data set with ACP male antennae (source dose 10^−1) stood at 0.52±0.36 mV.

As to `CC(=O)O` [acetic acid], the “Female response to baited arm vs control side of Y-olfactometer” value in data set [3] is listed as “did not differ significantly”. In addition, the “Effect on responses from olfactory receptor neurons” value in [2] is listed as “inhibit responses”. Moreover, the EAG response in the data set on ACP male antennae (source dose 10^−1) is on record as 2.70±0.36 mV; in the data set on ACP male antennae (source dose 10^−2) it was 1.73±0.37 mV; in the data set with ACP male antennae (very low dose 10^−3) it was 0.44±0.21 mV; in the data set with ACP female antennae, 3.22±0.94 mV. In addition, in the data set with D. citri adults [1] (traps baited with 1 ug), the “Captures vs control traps, preliminary field experiments” value was “captured significantly more ACP adults than control traps”. Moreover, the Males caught with D. citri adults [1] (traps baited with 1 μg) was determined as 2.48±0.25 males per trap per day; in the data set with D. citri adults [1] (traps baited with 10 μg), 3.08±0.33 males per trap per day; in the data set with D. citri adults [1] (traps baited with 100 μg), 4.23±0.35 males per trap per day. Also, the ACP adults captured in the data set on D. citri adults [1] (setting [9]) was 7.42±0.35 D. citri per trap per week; in the data set on D. citri adults [1] (setting [10]), 14.77±0.54 D. citri per trap per week; in the data set with D. citri adults [1] (setting [11]) it was 9.52±0.50 D. citri per trap per week. Also, in [4] (acetic acid 0.01 μL/μL hexane, 100 μL), the “Male attraction to treatment side vs control side of Y-olfactometer” value is on record as “significantly more attracted”. Further, in data set [5], the “Female choice between treatment and control sides of 4-way olfactometer” value was “did not distinguish”. In addition, in data set [5], the “Time spent by females on treatment vs control sides of 4-way olfactometer” value is reported as “not significantly different”. The “Time spent by males in treatment vs control fields of 4-way olfactometer” value in data set [6] is given as “spent significantly more time”. In addition, in data set [6] (first choice), the “Male preference for treatment fields vs control sides in 4-way olfactometer” value is “highly significant”.

With `CCCCCC(=O)O` [hexanoic acid, reference compound], in the data set with ACP male antennae (source dose 10^−1), the EAG response result is “no response”.

Molecule `CCCCC(=O)O` [valeric acid] came in with an EAG response with ACP male antennae (source dose 10^−1) of 0.24±0.03 mV.

As to `CCCCCCCCCCCCCCCCCCCCCCCCOC(C)=O` [24Ac, tetracosyl acetate], the “Lure activity after 42 days” value with D. citri adults [1] (1 μg per trap, after 42 days) is “lost activity”. Besides, the “Captures in baited traps vs control traps” value in the data set with D. citri adults [1] (1 μg per trap, at 35 and 42 days) is listed as “significantly more males were captured”; with D. citri adults [1] (1, 10 and 100 μg per trap, first weeks of the experiments), “not significantly different”; with D. citri adults [1] (1.0, 10 and 100 μg, 35 and 42 days after onset), “a significant difference was observed; also recorded: significantly higher than captures in control traps”. For the same molecule, in data set [4] (0.1 to 100 μg as odor source, P=0.2031-0.9999), the “Preference of virgin males for treatment vs control in olfactometer” value was “did not show any significant preference”. For the same molecule, in data set [7], the “Degradation of lure: volatiles detected by SPME” value is “small amounts of acetic acid in aged but not in new lures”. Further, the Lure activity entry in the data set on D. citri adults [8] (aged lures, after 3 weeks in field) was “lost all activity”. Moreover, the “Males collected vs control traps” value with D. citri adults [8] (lures aged for 35 days, first week in field) is given as “collected significantly more males than control traps”.
